This passage reports melting point results from patent US6903097B2 (dated 2005).

Each structure is given as a SMILES string.

Usually melting point stands for the temperature, or range, at which the solid turns liquid. Regarding `O=C(NCc1ccc(Cl)cc1)c1cnc2ccc(C#CCO)cn2c1=O`, the melting point fell in the range of 179 to 181 °C.
To `CN1c2ccc(C#CCO)cc2C(O)=C(C(=O)NCc2ccc(Cl)cc2)S1(=O)=O` belongs 167 to 168 °C; to `CN1N=C(C(=O)NCc2ccc(Cl)cc2)S(=O)(=O)c2cc(C#CCO)sc21`, 98 °C (dec.); to `O=C(NCc1ccc(Cl)cc1)c1nn(-c2ccccc2)c2sc(CN3CCOCC3)cc2c1=O`, 182 to 184 °C.
In turn, `O=C(NCc1ccc(Cl)cc1)c1ccc2sc(CN3CCOCC3)cc2c1O` had a melting point of 200 °C.
In turn, `O=C(NCc1ccc(Cl)cc1)c1coc2ccc(C#CCO)cc2c1=O` displayed a melting point of 185 to 186 °C.
To `O=C(NCc1ccc(Cl)cc1)c1noc2ccc(C#CCO)cc2c1=O` belongs 117 to 120 °C; to `Cn1nc(C(=O)NCc2ccc(Cl)cc2)c(=O)c2cc(C#CCO)cnc21`, 201 to 206 °C.
